pIC50: −log10 of the molar value. Like-named read-outs stand apart in the source and are kept apart here.
What was measured:
[1] = test system: L. sigmodontis adult worms; settings: for reduction of adult worm burden: mice, 30 mg/kg BID; for adult worm burden reduction: figure prints reduction as negative value
O. volvulus L5 larvae = assay: O. volvulus L5 ex vivo assay, MTT viability; assay type: cell-based, Onchocerca volvulus; settings: Day 21, 1 uM
Method: This culturing medium was then added in transwell 24-well plates containing human umbilical vein endothelial cell (HUVEC) monolayers, containing the L4 larvae. A week prior to conducting an assay, the cultured O. volvulus larvae (L5) were transferred into a Petri dish containing fresh medium. […] After the transfer of O. volvulus L5 to the plates, the test compounds were dissolved in DMSO, added to each well, and incubated at 37 °C in a 5% CO2. The media containing freshly prepared compounds were partially replaced every 2–3 days for 14 days. After 14 days, the media were completely replaced. The untreated control contains the media described above with a final concentration of 0.05% DMSO. […] The motility was measured visually by two operators. […] Following washout and incubation during 1 h in PBS under 5% CO2, worms were observed under an inverted microscope. Worms were considered dead if no staining or less than 50% within the worm was observed. Otherwise, if worms stained blue or more than 50% stained, then they are considered alive. All test treatments were performed in duplicates. Significance was determined using a t test.

[2] = Liver S9 metabolic stability assay, rat; assay type: in vitro ADME; settings: 3 μM, 60 min
Summary of the method: (§1)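 Rat and human liver S9 (0.75 and 1.2 mg/ml) with 1 mM NADPH, 0.5 mM UDPGA, 2.5 mM GSH, 0.05 mg/ml PAPS, 3µM substrate, 60 min at 37 °C in Tris/MgCl2 pH 7.4. Mouse microsomes 0.3 mg/mL, 1 mM NADPH, 3µM, 30 min, phosphate pH 7.4. LC-MS/MS, % remaining, triplicate.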

[3] = Liver S9 metabolic stability assay, human; assay type: in vitro ADME; settings: 3 μM, 60 min
Summary of the method: as §1

P-gp (MDR1) = target: T1, P-gp (MDR1) (Homo sapiens, UniProt P08183); assay: MDCK/MDR1 permeability and efflux; assay type: in vitro ADME; settings: dog
T1 construct: expressed in transfected cells; host or cells: MDCK (Madin Darby canine kidney) cells
From the text: Our approach was to target compounds with efflux ratio (ER) >2.5 in the MDCK cell line transfected with MDR1 (multidrug resistance-1 transfected Madin Darby canine kidney cell line). […] Our goal was to impart structural elements designed to impart Pgp recognition.

[4] = THLE-2 cytotoxicity assay (ATP); settings: human
Summary of the method: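 THLE-2 cells in supplemented LHC-8 medium were exposed for 24 or 72 h to final concentrations of 0.01–300 μM. Viability was read as ATP by CellTiter-Glo luminescence and normalized to DMSO vehicle. IC50 came from nonlinear regression of dose-response curves.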

[5] = Plasma protein binding, human; assay type: in vitro ADME; settings: read-out: Plasma Protein Binding %, h (converted)
CYP2C9 = CYP2C9 (Homo sapiens, UniProt P11712); assay: Cytochrome P450 inhibition, 2C9; assay type: in vitro ADME; settings: read-out: Cytochrome P450s IC50, 2C9
CYP1A2 = target: T2, CYP1A2 (Homo sapiens, UniProt P05177); assay: Cytochrome P450 inhibition, 1A2; assay type: in vitro ADME; settings: read-out: Cytochrome P450s IC50, 1A2
T2 sequence (P05177 1-516): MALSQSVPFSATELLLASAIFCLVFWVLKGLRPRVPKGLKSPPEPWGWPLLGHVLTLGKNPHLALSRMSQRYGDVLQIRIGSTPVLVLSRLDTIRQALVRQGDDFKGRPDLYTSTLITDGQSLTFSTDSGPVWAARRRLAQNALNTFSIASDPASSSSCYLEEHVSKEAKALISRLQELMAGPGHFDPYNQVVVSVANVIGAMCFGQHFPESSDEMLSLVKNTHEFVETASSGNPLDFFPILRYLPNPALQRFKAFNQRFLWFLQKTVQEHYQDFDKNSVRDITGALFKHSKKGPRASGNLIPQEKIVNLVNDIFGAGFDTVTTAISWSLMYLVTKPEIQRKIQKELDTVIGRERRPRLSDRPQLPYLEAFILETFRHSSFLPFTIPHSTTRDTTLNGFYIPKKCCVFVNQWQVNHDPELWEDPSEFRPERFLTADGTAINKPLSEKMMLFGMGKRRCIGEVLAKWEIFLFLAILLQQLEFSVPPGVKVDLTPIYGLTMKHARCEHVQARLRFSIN

hERG = target: T3, hERG (Homo sapiens, UniProt Q12809); assay: hERG inhibition; assay type: cell-based; settings: human
T3 construct: expressed in transfected cells

CYP3A4 = CYP3A4 (Homo sapiens, UniProt P08684); assay: Cytochrome P450 inhibition, 3A4; assay type: in vitro ADME; settings: read-out: Cytochrome P450s IC50, 3A4
[6] = test system: CEREP receptor, ion channel, transporter panel; assay: Eurofins CEREP non-kinase panel, binding; settings: binding at 10 μM
Method: [36] Eurofins Cerep, Le Bois l’Evêque B.P. 30001, 86 600 Celle l’Evescault, France. Compound binding was calculated as a % inhibition of the binding of a radioactively labeled ligand specific for each target.

CYP2C19 = CYP2C19 (Homo sapiens, UniProt P33261); assay: Cytochrome P450 inhibition, 2C19; assay type: in vitro ADME; settings: read-out: Cytochrome P450s IC50, 2C19
Sequence of CYP2C19 (P33261 whole entry): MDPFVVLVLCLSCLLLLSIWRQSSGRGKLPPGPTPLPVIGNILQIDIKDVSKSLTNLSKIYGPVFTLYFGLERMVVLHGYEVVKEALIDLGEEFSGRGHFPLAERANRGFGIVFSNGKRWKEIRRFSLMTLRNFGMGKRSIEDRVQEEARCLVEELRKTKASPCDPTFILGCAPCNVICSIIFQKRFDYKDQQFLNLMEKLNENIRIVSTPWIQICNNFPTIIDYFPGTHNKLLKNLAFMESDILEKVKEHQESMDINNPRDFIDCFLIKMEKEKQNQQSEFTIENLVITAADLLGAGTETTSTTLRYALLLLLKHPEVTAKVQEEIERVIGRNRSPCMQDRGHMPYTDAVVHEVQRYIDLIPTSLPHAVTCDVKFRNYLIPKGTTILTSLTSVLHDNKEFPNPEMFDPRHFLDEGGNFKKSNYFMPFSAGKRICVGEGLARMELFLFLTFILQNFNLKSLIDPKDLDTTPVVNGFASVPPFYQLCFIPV

Sequence of CYP2C9 (P11712 whole entry): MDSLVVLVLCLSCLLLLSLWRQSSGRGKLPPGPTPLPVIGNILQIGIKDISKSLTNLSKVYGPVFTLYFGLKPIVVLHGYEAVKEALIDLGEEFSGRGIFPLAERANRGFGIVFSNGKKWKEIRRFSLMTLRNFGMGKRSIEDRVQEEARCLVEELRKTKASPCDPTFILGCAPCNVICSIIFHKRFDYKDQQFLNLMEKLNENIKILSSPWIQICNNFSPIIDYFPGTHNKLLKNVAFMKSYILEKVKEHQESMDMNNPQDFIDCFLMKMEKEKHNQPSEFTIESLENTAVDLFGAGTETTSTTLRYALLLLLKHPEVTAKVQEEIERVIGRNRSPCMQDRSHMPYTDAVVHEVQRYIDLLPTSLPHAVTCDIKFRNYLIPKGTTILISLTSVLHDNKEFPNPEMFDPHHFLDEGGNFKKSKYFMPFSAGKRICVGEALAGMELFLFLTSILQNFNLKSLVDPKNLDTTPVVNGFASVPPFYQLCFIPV
Sequence of CYP3A4 (P08684 whole entry): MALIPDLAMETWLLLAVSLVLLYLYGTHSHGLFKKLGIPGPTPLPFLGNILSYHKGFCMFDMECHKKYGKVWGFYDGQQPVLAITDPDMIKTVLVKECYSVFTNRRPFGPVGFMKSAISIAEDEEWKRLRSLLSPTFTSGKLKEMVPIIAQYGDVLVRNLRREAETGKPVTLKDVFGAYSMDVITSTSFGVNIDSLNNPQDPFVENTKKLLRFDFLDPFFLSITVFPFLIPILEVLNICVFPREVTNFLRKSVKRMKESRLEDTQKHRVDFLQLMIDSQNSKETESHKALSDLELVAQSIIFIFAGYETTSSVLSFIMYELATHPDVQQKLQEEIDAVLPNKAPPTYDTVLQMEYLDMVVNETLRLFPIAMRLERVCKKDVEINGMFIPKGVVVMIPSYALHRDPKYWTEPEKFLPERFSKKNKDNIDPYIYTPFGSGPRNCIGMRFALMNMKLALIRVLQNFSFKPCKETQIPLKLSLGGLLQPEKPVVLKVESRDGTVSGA
T3 sequence (Q12809 whole entry): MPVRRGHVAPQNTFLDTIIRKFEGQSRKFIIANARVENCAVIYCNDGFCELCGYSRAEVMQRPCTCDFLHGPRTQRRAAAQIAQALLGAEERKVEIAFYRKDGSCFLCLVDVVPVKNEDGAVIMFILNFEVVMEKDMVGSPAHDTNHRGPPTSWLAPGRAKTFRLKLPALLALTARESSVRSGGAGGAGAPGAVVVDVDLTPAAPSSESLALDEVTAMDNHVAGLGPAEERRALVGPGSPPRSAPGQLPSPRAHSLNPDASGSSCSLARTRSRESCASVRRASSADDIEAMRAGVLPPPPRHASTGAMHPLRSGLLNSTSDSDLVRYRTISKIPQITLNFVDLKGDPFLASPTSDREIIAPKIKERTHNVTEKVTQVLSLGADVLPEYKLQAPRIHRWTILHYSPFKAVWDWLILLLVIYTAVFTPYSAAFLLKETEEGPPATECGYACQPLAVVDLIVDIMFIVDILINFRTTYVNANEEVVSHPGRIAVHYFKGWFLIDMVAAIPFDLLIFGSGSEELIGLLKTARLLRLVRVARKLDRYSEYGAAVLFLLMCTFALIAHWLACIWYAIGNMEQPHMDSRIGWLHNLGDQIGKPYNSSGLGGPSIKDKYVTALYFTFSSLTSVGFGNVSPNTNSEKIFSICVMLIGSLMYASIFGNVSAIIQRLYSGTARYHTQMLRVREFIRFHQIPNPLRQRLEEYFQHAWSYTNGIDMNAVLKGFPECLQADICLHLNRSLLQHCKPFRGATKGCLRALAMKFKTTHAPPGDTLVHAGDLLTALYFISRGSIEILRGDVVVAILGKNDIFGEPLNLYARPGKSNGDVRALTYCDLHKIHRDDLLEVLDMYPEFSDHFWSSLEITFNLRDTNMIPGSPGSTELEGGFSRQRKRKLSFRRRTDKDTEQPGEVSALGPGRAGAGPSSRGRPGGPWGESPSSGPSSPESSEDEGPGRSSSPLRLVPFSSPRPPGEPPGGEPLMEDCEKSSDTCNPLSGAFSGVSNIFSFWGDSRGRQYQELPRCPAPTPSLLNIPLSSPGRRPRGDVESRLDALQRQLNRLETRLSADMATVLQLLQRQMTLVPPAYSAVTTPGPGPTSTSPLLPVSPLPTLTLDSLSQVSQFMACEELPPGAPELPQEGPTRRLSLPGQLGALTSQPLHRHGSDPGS
T1 sequence (P08183 whole entry): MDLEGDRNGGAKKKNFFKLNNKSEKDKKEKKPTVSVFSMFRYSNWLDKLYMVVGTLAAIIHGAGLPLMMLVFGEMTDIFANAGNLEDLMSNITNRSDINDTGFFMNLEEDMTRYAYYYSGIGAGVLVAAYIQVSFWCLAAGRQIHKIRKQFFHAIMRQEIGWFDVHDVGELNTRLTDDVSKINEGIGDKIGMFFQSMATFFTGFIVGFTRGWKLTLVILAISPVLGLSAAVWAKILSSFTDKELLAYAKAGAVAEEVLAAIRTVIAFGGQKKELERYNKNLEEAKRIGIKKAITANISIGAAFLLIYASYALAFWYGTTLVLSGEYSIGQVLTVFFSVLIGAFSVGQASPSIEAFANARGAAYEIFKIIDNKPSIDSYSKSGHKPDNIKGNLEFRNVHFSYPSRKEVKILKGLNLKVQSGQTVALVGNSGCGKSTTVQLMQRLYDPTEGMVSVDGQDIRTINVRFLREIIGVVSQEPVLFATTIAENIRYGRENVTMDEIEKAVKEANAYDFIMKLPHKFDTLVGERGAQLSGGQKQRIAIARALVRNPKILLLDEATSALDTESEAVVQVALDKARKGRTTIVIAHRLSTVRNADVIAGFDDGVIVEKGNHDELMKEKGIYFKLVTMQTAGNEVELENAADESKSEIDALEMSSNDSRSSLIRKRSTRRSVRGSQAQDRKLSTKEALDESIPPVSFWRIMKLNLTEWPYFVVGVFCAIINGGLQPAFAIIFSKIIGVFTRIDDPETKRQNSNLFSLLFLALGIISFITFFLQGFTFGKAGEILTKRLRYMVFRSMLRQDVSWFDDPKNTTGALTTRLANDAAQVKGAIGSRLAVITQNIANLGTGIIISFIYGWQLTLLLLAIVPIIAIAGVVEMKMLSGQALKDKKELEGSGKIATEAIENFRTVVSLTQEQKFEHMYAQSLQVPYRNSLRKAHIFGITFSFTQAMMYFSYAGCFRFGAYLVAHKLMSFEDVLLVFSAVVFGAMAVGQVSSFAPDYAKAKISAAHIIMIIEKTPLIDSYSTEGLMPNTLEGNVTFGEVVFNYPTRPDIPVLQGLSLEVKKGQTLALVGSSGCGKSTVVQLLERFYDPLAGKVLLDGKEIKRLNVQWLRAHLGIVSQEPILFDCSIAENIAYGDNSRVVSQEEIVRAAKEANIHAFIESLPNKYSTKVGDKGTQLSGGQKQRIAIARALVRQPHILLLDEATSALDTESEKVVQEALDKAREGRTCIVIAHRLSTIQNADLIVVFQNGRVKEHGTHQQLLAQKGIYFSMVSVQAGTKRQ

Row | Structure (SMILES) | O. volvulus L5 % inhibition of viability (O. volvulus L5 larvae) [%] | Rat S9 metabolic stability [2] [% remaining] | Human S9 metabolic stability [3] [% remaining] | also measured
1 | CN(C)c1cccnc1Nc1nc(-c2ccc(OC3CC3)cn2)ns1 [Compound 32] | 83 | 91 | 100 | reduction of adult worm burden ([1]; 7 days of dosing): 70%; adult worm burden reduction ([1]; naturally infected mice, 30 mg/kg BID 6d oral): -69.9%
2 | Cc1cccnc1Nc1nc(-c2ccc(OC3CC3)cn2)ns1 [Compound 11, 3-(5-Cyclopropoxypyridin-2-yl)-N-(3-methylpyridin-2-yl)-1,2,4-thiadiazol-5-amine] | 100 | 61 | 76 | 
3 | CC(C)Oc1ccc(-c2nsc(Nc3ncccc3C(C)C)n2)nc1 [Compound 25, 3-(5-Isopropoxy-2-pyridyl)-N-(3-isopropyl-2-pyridyl)-1,2,4-thiadiazol-5-amine] |  | 82 | 99 | 
4 | Cc1cccnc1Nc1nc(-c2ccc(OC3CCN(C4CC4)CC3)cn2)ns1 [Compound 19, 3-[5-[(1-Cyclopropyl-4-piperidyl)oxy]-2-pyridyl]-N-(3-methyl-2-pyridyl)-1,2,4-thiadiazol-5-amine] |  | 76 | 83 | 
5 | CC(C)c1ccnc(-c2nsc(Nc3ncccc3C(F)(F)F)n2)c1 [Compound 27] |  | 27 | 45 | 
6 | CC(C)Oc1ccc(-c2nsc(Nc3ncccc3N(C)C(=O)C3CC3)n2)nc1 [Compound 50, N-(2-((3-(5-Isopropoxypyridin-2-yl)-1,2,4-thiadiazol-5-yl)amino)pyridin-3-yl)-N-methylcyclopropanecarboxamide] | 100 |  |  | Papp A→B (P-gp (MDR1)): 19.3 ×10⁻⁶ cm/s
7 | CC(C)Oc1ccc(-c2nsc(Nc3ncccc3N(C)C)n2)nc1 [Compound 31, N^2-(3-(5-Isopropoxypyridin-2-yl)-1,2,4-thiadiazol-5-yl)-N3,N3-dimethylpyridine-2,3-diamine] | 100 | 79 | 86 | adult worm burden reduction ([1]; mice infected SC with 40 L3 larvae, 30 mg/kg BID 7d oral): -97.1%; reduction of adult worm burden ([1]; 6 days of dosing): 97%; CC50 [4]: 36 µM; fraction unbound [5]: < 0.01; pIC50 (CYP2C9): 5.26; pIC50 (CYP1A2): < 4.52; pIC50 (hERG): 4.94; pIC50 (CYP3A4): 4.66; CEREP receptor, ion channel, transporter panel: targets bound / tested ([6]; targets with >70%): 5/76; pIC50 (CYP2C19): 4.70
8 | CNc1cccnc1Nc1nc(-c2ccc(OC(C)C)cn2)ns1 [Compound 30] |  | 73 | 86 | 
9 | Cc1ccnc(-c2nsc(Nc3ncccc3C(F)(F)F)n2)c1 [Compound 26, 3-(4-Methylpyridin-2-yl)-N-(3-(trifluoromethyl)pyridin-2-yl)-1,2,4-thiadiazol-5-amine] |  | 61 | 56 | 
10 | Cc1cccnc1Nc1nc(-c2ccc(OC(C)C)cn2)ns1 [Compound 10, 3-(5-Isopropoxypyridin-2-yl)-N-(3-methylpyridin-2-yl)-1,2,4-thiadiazol-5-amine] |  | 100 | 100 | tolerability in mice ([1]; reason for lowering the dose from 30 to 10 mg/kg): tolerability issues
11 | CC(=O)N(C)c1cccnc1Nc1nc(-c2ccc(OC(C)C)cn2)ns1 [Compound 47, N-(2-((3-(5-Isopropoxypyridin-2-yl)-1,2,4-thiadiazol-5-yl)amino)pyridin-3-yl)-N-methylacetamide] | 100 |  |  | CC50 [4]: 106 µM; fraction unbound [5]: 0.093; pIC50 (CYP2C9): 5.24; pIC50 (CYP1A2): < 4.52; pIC50 (hERG): < 4.52; pIC50 (CYP3A4): < 4.52; CEREP receptor, ion channel, transporter panel: targets bound / tested ([6]; targets with >50%): 1/76; pIC50 (CYP2C19): 4.54; Papp A→B (P-gp (MDR1)): 3.9 ×10⁻⁶ cm/s
12 | CC(C)c1ccnc(-c2nsc(Nc3cc(C(F)(F)F)ccn3)n2)c1 [Compound 35, 3-(4-Isopropylpyridin-2-yl)-N-(4-(trifluoromethyl)pyridin-2-yl)-1,2,4-thiadiazol-5-amine] |  | 45 | 65 | 
13 | Cc1cccnc1Nc1nc(-c2ccc(OC3CC4(C3)CN(C3CC3)C4)cn2)ns1 [Compound 12, 3-[5-[(2-Cyclopropyl-2-azaspiro[3.3]heptan-6-yl)oxy]-2-pyridyl]-N-(3-methyl-2-pyridyl)-1,2,4-thiadiazol-5-mine] |  | 53 | 58 | 

From publication PMC9421654, “Discovery of Substituted Di(pyridin-2-yl)-1,2,4-thiadiazol-5-amines as Novel Macrofilaricidal Compounds for the Treatment of Human Filarial Infections” (Journal of Medicinal Chemistry, 2022)
